Results: the CheMixHub viscosity set

Test: xn = mol fraction of the nth substance listed

CCCCOC(C)=O + COCCO
viscosity [mPa·s], 101 kPa
Settings | x2 = 0.0967 | x2 = 0.1995 | x2 = 0.2988 | x2 = 0.3986 | x2 = 0.4983 | x2 = 0.6028 | x2 = 0.697 | x2 = 0.7987 | x2 = 0.9012
298.15 K | 0.703 | 0.736 | 0.787 | 0.841 | 0.922 | 1.01 | 1.13 | 1.285 | 1.48
303.15 K | 0.656 | 0.686 | 0.731 | 0.78 | 0.849 | 0.928 | 1.034 | 1.17 | 1.34
308.15 K | 0.615 | 0.641 | 0.68 | 0.723 | 0.785 | 0.855 | 0.948 | 1.066 | 1.217

CCCN + COCCO
viscosity [mPa·s]
Settings | 293.15 K | 298.15 K
101 kPa, x2 = 0.0294 | – | 0.387
101 kPa, x2 = 0.0662 | – | 0.415
101 kPa, x2 = 0.0845 | – | 0.431
101 kPa, x2 = 0.1053 | – | 0.448
101 kPa, x2 = 0.1391 | – | 0.482
101 kPa, x2 = 0.1936 | – | 0.54
101 kPa, x2 = 0.2423 | – | 0.6
101 kPa, x2 = 0.2765 | – | 0.644
101 kPa, x2 = 0.321 | – | 0.708
101 kPa, x2 = 0.3635 | – | 0.775
101 kPa, x2 = 0.3989 | – | 0.835
101 kPa, x2 = 0.4418 | – | 0.909
101 kPa, x2 = 0.4845 | – | 0.974
101 kPa, x2 = 0.5165 | – | 1.031
101 kPa, x2 = 0.5599 | – | 1.106
101 kPa, x2 = 0.5942 | – | 1.166
101 kPa, x2 = 0.6575 | – | 1.265
101 kPa, x2 = 0.6877 | – | 1.309
101 kPa, x2 = 0.7452 | – | 1.384
101 kPa, x2 = 0.8042 | – | 1.442
101 kPa, x2 = 0.8424 | – | 1.47
101 kPa, x2 = 0.8852 | – | 1.495
101 kPa, x2 = 0.9064 | – | 1.505
101 kPa, x2 = 0.9584 | – | 1.522
101 kPa, x2 = 0.9794 | – | 1.527
101.3 kPa, x2 = 0.0502 | 0.396 | 0.38
101.3 kPa, x2 = 0.1009 | 0.435 | 0.415
101.3 kPa, x2 = 0.1501 | 0.479 | 0.453
101.3 kPa, x2 = 0.2002 | 0.533 | 0.501
101.3 kPa, x2 = 0.2504 | 0.599 | 0.559
101.3 kPa, x2 = 0.3 | 0.674 | 0.627
101.3 kPa, x2 = 0.3498 | 0.759 | 0.703
101.3 kPa, x2 = 0.3997 | 0.852 | 0.785
101.3 kPa, x2 = 0.4499 | 0.95 | 0.87
101.3 kPa, x2 = 0.4998 | 1.05 | 0.955
101.3 kPa, x2 = 0.5504 | 1.149 | 1.039
101.3 kPa, x2 = 0.6 | 1.241 | 1.116
101.3 kPa, x2 = 0.6498 | 1.325 | 1.186
101.3 kPa, x2 = 0.6999 | 1.4 | 1.249
101.3 kPa, x2 = 0.7495 | 1.462 | 1.304
101.3 kPa, x2 = 0.8 | 1.515 | 1.354
101.3 kPa, x2 = 0.8511 | 1.561 | 1.4
101.3 kPa, x2 = 0.8999 | 1.601 | 1.443
101.3 kPa, x2 = 0.9499 | 1.647 | 1.49

Oc1ccccc1Cl + COCCO
viscosity [mPa·s], 101 kPa
Settings | x1 = 0.0797 | x1 = 0.163 | x1 = 0.2503 | x1 = 0.3418 | x1 = 0.4379 | x1 = 0.5388 | x1 = 0.6451 | x1 = 0.757 | x1 = 0.8752
303.15 K | 1.925 | 2.342 | 2.78 | 3.204 | 3.56 | 3.811 | 3.884 | 3.735 | 3.376
308.15 K | 1.81 | 2.126 | 2.456 | 2.776 | 3.04 | 3.212 | 3.268 | 3.166 | 2.898
313.15 K | 1.479 | 1.762 | 2.055 | 2.335 | 2.586 | 2.765 | 2.842 | 2.785 | 2.593
318.15 K | 1.34 | 1.572 | 1.805 | 2.03 | 2.227 | 2.37 | 2.445 | 2.419 | 2.282

CCCN + COCCOC
298.15 K, 101 kPa
Settings | viscosity [mPa·s]
x1 = 0.0189 | 0.415
x2 = 0.0057 | 0.356
x2 = 0.0115 | 0.357
x2 = 0.032 | 0.358
x2 = 0.0568 | 0.36
x2 = 0.0815 | 0.362
x2 = 0.1075 | 0.364
x2 = 0.1552 | 0.368
x2 = 0.1871 | 0.369
x2 = 0.2467 | 0.372
x2 = 0.2882 | 0.373
x2 = 0.3386 | 0.374
x2 = 0.3526 | 0.374
x2 = 0.3761 | 0.374
x2 = 0.4134 | 0.375
x2 = 0.4707 | 0.378
x2 = 0.5131 | 0.38
x2 = 0.5662 | 0.381
x2 = 0.6099 | 0.383
x2 = 0.6466 | 0.386
x2 = 0.7017 | 0.39
x2 = 0.74 | 0.392
x2 = 0.8022 | 0.397
x2 = 0.833 | 0.399
x2 = 0.8785 | 0.403
x2 = 0.9167 | 0.408
x2 = 0.9436 | 0.411

CCCN + COCCOCCO
298.15 K, 101 kPa
Settings | viscosity [mPa·s]
x2 = 0.0255 | 0.399
x2 = 0.0563 | 0.444
x2 = 0.0879 | 0.493
x2 = 0.1249 | 0.562
x2 = 0.1605 | 0.634
x2 = 0.2036 | 0.735
x2 = 0.2453 | 0.842
x2 = 0.2996 | 1.01
x2 = 0.3405 | 1.159
x2 = 0.3854 | 1.334
x2 = 0.4144 | 1.455
x2 = 0.4488 | 1.601
x2 = 0.4769 | 1.726
x2 = 0.5252 | 1.953
x2 = 0.5736 | 2.163
x2 = 0.6235 | 2.386
x2 = 0.6581 | 2.523
x2 = 0.7072 | 2.718
x2 = 0.7563 | 2.892
x2 = 0.7974 | 3.02
x2 = 0.8476 | 3.165
x2 = 0.8779 | 3.225
x2 = 0.9088 | 3.297
x2 = 0.9387 | 3.351
x2 = 0.9526 | 3.375

CCCN + COCCOCCOC
298.15 K, 101 kPa
Settings | viscosity [mPa·s]
x1 = 0.0113 | 0.985
x2 = 0.0044 | 0.359
x2 = 0.0179 | 0.368
x2 = 0.0461 | 0.385
x2 = 0.0659 | 0.4
x2 = 0.0913 | 0.417
x2 = 0.1293 | 0.443
x2 = 0.1685 | 0.472
x2 = 0.1892 | 0.487
x2 = 0.2354 | 0.518
x2 = 0.2682 | 0.541
x2 = 0.2727 | 0.544
x2 = 0.315 | 0.575
x2 = 0.3201 | 0.579
x2 = 0.3647 | 0.613
x2 = 0.3683 | 0.615
x2 = 0.4079 | 0.644
x2 = 0.4628 | 0.679
x2 = 0.5243 | 0.721
x2 = 0.5823 | 0.757
x2 = 0.6408 | 0.796
x2 = 0.7358 | 0.84
x2 = 0.79 | 0.873
x2 = 0.8565 | 0.908
x2 = 0.897 | 0.935
x2 = 0.9375 | 0.955

CCCN + COCCOCCOCCOC
298.15 K, 101 kPa
Settings | viscosity [mPa·s]
x2 = 0.0076 | 0.366
x2 = 0.0166 | 0.375
x2 = 0.0296 | 0.393
x2 = 0.0659 | 0.44
x2 = 0.0954 | 0.48
x2 = 0.1298 | 0.526
x2 = 0.1596 | 0.567
x2 = 0.1909 | 0.611
x2 = 0.2265 | 0.659
x2 = 0.2351 | 0.673
x2 = 0.2622 | 0.711
x2 = 0.2681 | 0.721
x2 = 0.3073 | 0.782
x2 = 0.3623 | 0.864
x2 = 0.4044 | 0.935
x2 = 0.4583 | 1.022
x2 = 0.5139 | 1.115
x2 = 0.5761 | 1.225
x2 = 0.6483 | 1.365
x2 = 0.6867 | 1.435
x2 = 0.745 | 1.549
x2 = 0.8308 | 1.72
x2 = 0.8787 | 1.805
x2 = 0.9203 | 1.862
x2 = 0.9618 | 1.917
